For this experiment, the target named is T1, HGFR (Homo sapiens, UniProt P08581).
T1 construct: purchased Upstate 14-526
The experiment in a line: HGFR continuous-coupled spectrophotometric assay. Format: biochemical. The settings on record: for inhibition at 1 µM: Table 6, percent c-MET inhibition at 1 μM, read-out: % inhibition; for I(%): test concentration not given.

The structures appear in SMILES notation.

T1 sequence (P08581 974-1390 limits assumed): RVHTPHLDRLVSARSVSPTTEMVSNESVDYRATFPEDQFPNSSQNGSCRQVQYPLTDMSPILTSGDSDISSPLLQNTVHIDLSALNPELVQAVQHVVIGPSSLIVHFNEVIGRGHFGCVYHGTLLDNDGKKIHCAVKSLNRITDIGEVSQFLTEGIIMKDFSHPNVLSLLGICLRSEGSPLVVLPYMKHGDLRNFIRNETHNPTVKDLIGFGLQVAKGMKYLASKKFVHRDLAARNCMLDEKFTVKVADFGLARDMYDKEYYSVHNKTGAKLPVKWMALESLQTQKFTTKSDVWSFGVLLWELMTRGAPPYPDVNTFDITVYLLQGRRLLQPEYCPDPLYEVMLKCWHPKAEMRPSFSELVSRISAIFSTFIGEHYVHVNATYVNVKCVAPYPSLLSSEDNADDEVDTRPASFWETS

On to `Nc1ncc(C(=O)NCCCN2CCOCC2)cc1OCc1c(Cl)cccc1Cl`, for which the inhibition at 1 µM was 26%.

As to `Nc1ncc(C(=O)NCc2ccc(S(N)(=O)=O)cc2)cc1OCc1c(Cl)cccc1Cl`, the inhibition at 1 µM came out at 30%.

In the case of `CC(=O)NCCNC(=O)c1cnc(N)c(OCc2c(Cl)cccc2Cl)c1`, the inhibition at 1 µM is 35%.

As to `CN(C)CC(C)(C)CNC(=O)c1cnc(N)c(OCc2c(Cl)cccc2Cl)c1`, the inhibition at 1 µM came to 38%.

Turning to `N#CC1(c2ccccc2)CCN(C(=O)c2cnc(N)c(OCc3c(Cl)cccc3Cl)c2)CC1`, the inhibition at 1 µM amounted to 37%.

For `Nc1ncc(C(=O)N2CCC(O)CC2)cc1OCc1c(Cl)cccc1Cl`, the inhibition at 1 µM is 35%.

Consider `Nc1ncc(C(=O)NCc2ccc(O)cc2)cc1OCc1c(Cl)cccc1Cl`, for which the inhibition at 1 µM was found to be 37%.

Turning to `Nc1ncc(C(=O)N2CCN(c3ccccn3)CC2)cc1OCc1c(Cl)cccc1Cl`, the inhibition at 1 µM turned out to be 34%.

Consider `Nc1ncc(C(=O)NCc2ccccc2Br)cc1OCc1c(Cl)cccc1Cl`, for which the inhibition at 1 µM turned out to be 36%.

For the compound `COc1ccc(CNC(=O)c2cnc(N)c(OCc3c(Cl)cccc3Cl)c2)c(OC)c1`, the inhibition at 1 µM turned out to be 59%.

As for `Nc1ncc(C(=O)NCCc2ccccc2F)cc1OCc1c(Cl)cccc1Cl`, the inhibition at 1 µM is 33%.

As to `Nc1ncc(C(=O)NCc2ccccc2OC(F)(F)F)cc1OCc1c(Cl)cccc1Cl`, the inhibition at 1 µM is 31%.

As for `CC(C)NC(=O)CN1CCN(C(=O)c2cnc(N)c(OCc3c(Cl)cccc3Cl)c2)CC1`, the inhibition at 1 µM amounted to 30%.

Turning to `Nc1ncc(C(=O)N2CCN(CCOCCO)CC2)cc1OCc1c(Cl)cccc1Cl`, the inhibition at 1 µM turned out to be 33%.

Take `CCN(CC)C(=O)C1CCCN(C(=O)c2cnc(N)c(OCc3c(Cl)cccc3Cl)c2)C1` (centres unmarked): the inhibition at 1 µM came out at 33%.

Take `Nc1ncc(C(=O)N2CCN(CCO)CC2)cc1OCc1c(Cl)cccc1Cl`: the inhibition at 1 µM was found to be 51%.

For the compound `CN1CCN(C(=O)c2cnc(N)c(OCc3c(Cl)cccc3Cl)c2)CC1`, the inhibition at 1 µM came out at 32%.

`Nc1ncc(C(=O)N2CCN(CC(=O)N3CCCC3)CC2)cc1OCc1c(Cl)cccc1Cl`: the inhibition at 1 µM is 32%.

Turning to `Nc1ncc(C(=O)N2CCCCC2CCO)cc1OCc1c(Cl)cccc1Cl` (centres unmarked), the inhibition at 1 µM came to 33%.

Regarding `Nc1ncc(C(=O)NCCC2CCC(=O)N2CCc2ccc(O)cc2)cc1OCc1c(Cl)cccc1Cl` (centres unmarked), the inhibition at 1 µM stood at 16%.

For `Nc1ncc(C(=O)N2CCC(Cc3cnccn3)CC2)cc1OCc1c(Cl)cccc1Cl`, the inhibition at 1 µM came to 72%.

Consider `Nc1ncc(C(=O)N2CCC(Cc3cccc(CO)c3)CC2)cc1OCc1c(Cl)cccc1Cl`, for which the inhibition at 1 µM was found to be 11%.

In the case of `NC(=O)c1ccc(CC2CCN(C(=O)c3cnc(N)c(OCc4c(Cl)cccc4Cl)c3)CC2)cc1`, the inhibition at 1 µM was 12%.

Turning to `Nc1ncc(C(=O)N2CCC3(CC2)CC(N2CCNC(=O)C2)CO3)cc1OCc1c(Cl)cccc1Cl` (centres unmarked), the inhibition at 1 µM came out at 17%.

For `CCN(CC)CC1(O)CCN(C(=O)c2cnc(N)c(OCc3c(Cl)cccc3Cl)c2)CC1`, the inhibition at 1 µM came to 71%.

For `Nc1ncc(C(=O)N2CCC3(CC2)CC(N2CCC(O)CC2)CO3)cc1OCc1c(Cl)cccc1Cl` (centres unmarked), the inhibition at 1 µM stood at 28%.

Regarding `CN(CCC1CCC(=O)N1CC(F)(F)F)C(=O)c1cnc(N)c(OCc2c(Cl)cccc2Cl)c1` (centres unmarked), the inhibition at 1 µM is 25%.

Consider `Nc1ncc(C(=O)N2CCC(O)(CCc3ccncc3)CC2)cc1OCc1c(Cl)cccc1Cl`, for which the inhibition at 1 µM was 25%.

As to `Nc1ncc(C(=O)NCc2noc(C(=O)N3CCC(CO)CC3)n2)cc1OCc1c(Cl)cccc1Cl`, the inhibition at 1 µM worked out at 26%.

Regarding `Nc1ncc(C(=O)N2CCCC(Cc3ncccn3)C2)cc1OCc1c(Cl)cccc1Cl` (centres unmarked), the inhibition at 1 µM came out at 25%.

Take `Nc1ncc(C(=O)N2CCC3(CC2)CC3C(=O)N2CCCCC2)cc1OCc1c(Cl)cccc1Cl` (centres unmarked): the inhibition at 1 µM was found to be 26%.

`Cc1noc([C@H]2CC[C@H](CNC(=O)c3cnc(N)c(OCc4c(Cl)cccc4Cl)c3)CC2)n1`: the inhibition at 1 µM was 3%.

For the compound `Nc1ncc(C(=O)NCc2noc(C(=O)N3CC[C@H](O)C3)n2)cc1OCc1c(Cl)cccc1Cl`, the inhibition at 1 µM amounted to 26%.

In the case of `Nc1ncc(C(=O)N2CCc3nnc(CCN4CCOCC4)n3CC2)cc1OCc1c(Cl)cccc1Cl`, the inhibition at 1 µM is 27%.

On to `Cc1nc[nH]c1CN1CCC2(CC1)CC(NC(=O)c1cnc(N)c(OCc3c(Cl)cccc3Cl)c1)CO2` (centres unmarked), for which the inhibition at 1 µM is 30%.

For `CCC(CC)CN1CCC2(CC1)CC(NC(=O)c1cnc(N)c(OCc3c(Cl)cccc3Cl)c1)CO2` (centres unmarked), the inhibition at 1 µM is 74%.

`COCC1CN(CC(N)=O)CCN(C(=O)c2cnc(N)c(OCc3c(Cl)cccc3Cl)c2)C1` (centres unmarked): the inhibition at 1 µM was 23%.

On to `Nc1ncc(C(=O)NC2COC3(CCN(c4ncccn4)CC3)C2)cc1OCc1c(Cl)cccc1Cl` (centres unmarked), for which the inhibition at 1 µM was determined as 21%.

Take `Cc1nc(CCNC(=O)c2cnc(N)c(OCc3c(Cl)cccc3Cl)c2)c[nH]1`: the inhibition at 1 µM was determined as 23%.

For the compound `CCCN(CCO)C1CCCN(C(=O)c2cnc(N)c(OCc3c(Cl)cccc3Cl)c2)CC1` (centres unmarked), the inhibition at 1 µM worked out at 17%.

In the case of `Nc1ncc(C(=O)N2CCCC(N3CCOCC3)CC2)cc1OCc1c(Cl)cccc1Cl` (centres unmarked), the inhibition at 1 µM stood at 18%.

Consider `Nc1ncc(C(=O)NC2COC3(CCN(Cc4ccncc4)CC3)C2)cc1OCc1c(Cl)cccc1Cl` (centres unmarked), for which the inhibition at 1 µM was found to be 20%.

Turning to `Nc1ncc(C(=O)N2CCC(O)(CN3CCCC3=O)C2)cc1OCc1c(Cl)cccc1Cl` (centres unmarked), the inhibition at 1 µM came out at 20%.

Regarding `CC(C)CCNC(=O)C1CC12CCN(C(=O)c1cnc(N)c(OCc3c(Cl)cccc3Cl)c1)CC2` (centres unmarked), the inhibition at 1 µM worked out at 21%.

As to `CN(CCc1ccccn1)CC1(O)CCN(C(=O)c2cnc(N)c(OCc3c(Cl)cccc3Cl)c2)C1` (centres unmarked), the inhibition at 1 µM was determined as 18%.

For the compound `Cc1cc(CCC2COC3(CCN(C(=O)c4cnc(N)c(OCc5c(Cl)cccc5Cl)c4)CC3)C2)no1` (centres unmarked), the inhibition at 1 µM is 19%.

In the case of `Nc1ncc(C(=O)N2CCCC(N3CCC(CO)CC3)CC2)cc1OCc1c(Cl)cccc1Cl` (centres unmarked), the inhibition at 1 µM came to 20%.

For `Nc1ncc(C(=O)N2CCCC(O)(COc3cccc(F)c3)C2)cc1OCc1c(Cl)cccc1Cl` (centres unmarked), the inhibition at 1 µM is 36%.

For `Nc1ncc(C(=O)N2CCC3(CC2)CC(CCc2ccnnc2)CO3)cc1OCc1c(Cl)cccc1Cl` (centres unmarked), the inhibition at 1 µM turned out to be 37%.

For the compound `CCc1ccc(COCC2CCN(C(=O)c3cnc(N)c(OCc4c(Cl)cccc4Cl)c3)CC2)nc1`, the inhibition at 1 µM was 41%.

Turning to `Cc1ccn2cc(CNC(=O)c3cnc(N)c(OCc4c(Cl)cccc4Cl)c3)nc2n1`, the inhibition at 1 µM is 45%.

In the case of `Nc1ncc(C(=O)N2CCn3c(CO)nnc3C2)cc1OCc1c(Cl)cccc1Cl`, the inhibition at 1 µM was found to be 31%.

`Nc1ncc(C(=O)NCc2cn3cc(Cl)ccc3n2)cc1OCc1c(Cl)cccc1Cl`: the inhibition at 1 µM came to 38%.

Regarding `Nc1ncc(C(=O)N2CCC(COc3cccc4cccnc34)C2)cc1OCc1c(Cl)cccc1Cl` (centres unmarked), the inhibition at 1 µM was determined as 35%.

As to `Nc1ncc(C(=O)N2CCC3(CC2)CC3C(=O)NCC2CC2)cc1OCc1c(Cl)cccc1Cl` (centres unmarked), the inhibition at 1 µM is 32%.

For `Nc1ncc(C(=O)N2CCC3(CC2)COC(CCc2cc(O)n[nH]2)C3)cc1OCc1c(Cl)cccc1Cl` (centres unmarked), the inhibition at 1 µM was 34%.

As for `Cn1ccnc1SCC1(O)CCCN(C(=O)c2cnc(N)c(CCc3c(Cl)cccc3Cl)c2)CC1` (centres unmarked), the inhibition at 1 µM was found to be 35%.

For `CC(C)CNC(=O)c1ccc(Cl)c(CNC(=O)c2cnc(N)c(OCc3c(Cl)cccc3Cl)c2)c1`, the inhibition at 1 µM was found to be 47%.

As to `COC(=O)c1ccc(-c2cnc(N)c(OC(C)c3c(Cl)ccc(F)c3Cl)c2)c(C)c1` (centres unmarked) [Example I-548, 4-{6-Amino-5-[1-(2,6-dichloro-3-fluoro-phenyl)-ethoxy]-Pyndin-3-yl}-3-methyl-benzoic acid methyl ester], the “I(%)” value (Table 3, Ki(μM) or I(%)) came out at 17%.

Regarding `COc1cc(C(=O)N2C[C@@H](C)N[C@@H](C)C2)cc(OC)c1-c1cnc(N)c(OC(C)c2c(Cl)ccc(F)c2Cl)c1` (some centres unmarked) [Example I-550, (4-{6-Amino-5-[1-(2,6-dichloro-3-fluoro-phenyl)-ethoxy]-pyridin-3-yl)-3,5-dimethoxy-phenyl)-(dimethyl-piperazin-1-yl)-methanone], the “I(%)” value (Table 3, Ki(μM) or I(%)) was 15%.

Regarding `CCOc1ccccc1-c1cnc(N)c(OC(C)c2c(Cl)ccc(F)c2Cl)c1` (centres unmarked) [Example I-555, 3-[1-(2,6-Dichloro-3-fluoro-phenyl)-ethoxy]-5-(2-ethoxy-phenyl)-pyridin-2-ylamine], the “I(%)” value (Table 3, Ki(μM) or I(%)) was 22%.

As to `COc1cccc(OC)c1-c1cnc(N)c(OC(C)c2c(Cl)ccc(F)c2Cl)c1` (centres unmarked) [Example I-558, 3-[1-(2,6-Dichloro-3-fluoro-phenyl)-ethoxy]-5-(2,6-dimethoxy-phenyl)-pyridin-2-ylamine], the “I(%)” value (Table 3, Ki(μM) or I(%)) is given as 2%.

As for `CC(Oc1cc(-c2ccccc2C(F)(F)F)cnc1N)c1c(Cl)ccc(F)c1Cl` (centres unmarked) [Example I-559, 3-[1-(2,6-Dichloro-3-fluoro-phenyl)-ethoxy]-5-(2-trifluoromethyl-phenyl)-pyridin-2-ylamine], the “I(%)” value (Table 3, Ki(μM) or I(%)) turned out to be 4%.

Take `CC(Oc1cc(-c2ccccc2Cl)cnc1N)c1c(Cl)ccc(F)c1Cl` (centres unmarked) [Example I-560, 5-(2-Chloro-phenyl)-3-[1-(2,6-dichloro-3-fluoro-phenyl)-ethoxy]-pyridin-2-ylamine]: the “I(%)” value (Table 3, Ki(μM) or I(%)) worked out at 24%.

`CC(Oc1cc(-c2ccccc2OC(F)(F)F)cnc1N)c1c(Cl)ccc(F)c1Cl` (centres unmarked) [Example I-561, 3-[1-(2,6-Didiloro-3-fluoro-phenyl)-ethoxy]-5-(2-trifluoromethoxy-phenyl)-pyridin-2-ylamine]: the “I(%)” value (Table 3, Ki(μM) or I(%)) turned out to be 14%.

Consider `CC(=O)c1ccccc1-c1cnc(N)c(OC(C)c2c(Cl)ccc(F)c2Cl)c1` (centres unmarked) [Example I-562, 1-(2-{6-Amino-5-[1-(2,6-dichloro-3-fluoro-phenyl)-ethoxy]-pyridin-3-yl}-phenyl)-ethanone], for which, where the note is “Table 3, Ki(μM) or I(%)”, the “I(%)” value is listed as 8%.

Where the note is “Table 3, Ki(μM) or I(%)”, `CC(Oc1cc(-c2ccccc2F)cnc1N)c1c(Cl)ccc(F)c1Cl` (centres unmarked) [Example I-563, 3-[1-(2,6-Dichloro-3-fluoro-phenyl)-ethoxy]-5-(2-fluoro-phenyl)-pyridin-2-ylamine] came in with a Ki of 0.433 µM.

Consider `CC(Oc1cc(-c2ccccc2CO)cnc1N)c1c(Cl)ccc(F)c1Cl` (centres unmarked) [Example I-564, (2-{6-Amino-5-[1-(2,6-dichloro-3 fluoro-phenyl)-ethoxy]pyridin-3-yl}-phenyl)-methanol], for which the “I(%)” value (Table 3, Ki(μM) or I(%)) is given as 21%.

In general, inhibition refers to the share of the control response that was lost under treatment. One may read the Ki as the dissociation constant of the complex between target and ligand, obtained from inhibition or displacement. Higher therefore signals lower affinity.

(Values after patent US8106197B2, “Aminoheteroaryl compounds as protein kinase inhibitors” (Pfizer Inc., priority 2003, dated 2012).)
